Source: patent US20240002375A1, “2-(INDAZOL-5-YL)-6-(PIPERIDIN-4-YL)-1,7-NAPHTHYRIDINE DERIVATIVES AND RELATED COMPOUNDS AS MODULATORS FOR SPLICING NUCLEIC ACIDS AND FOR THE TRE” (REMIX THERAPEUTICS INC., priority 2020, published 2024)

Key:
Format in all cases: cell-based
HTT CJ mRNA = assay: Gene panel canonical junction qPCR splicing assay, HTT; conditions: Table 4, read-out: HTT IC50 (decrease in CJ mRNA levels)
In short: (§1)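 A673 or K562 cells treated with compound; canonical-junction mRNA measured by RT-qPCR with junction-spanning primer/probe sets, normalized to GAPDH, GUSB or PPIA and DMSO (2^−ΔΔCt). IC50 for CJ decrease from 4-parameter logistic fit of percentage response.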

Target C CJ mRNA = assay: Gene panel canonical junction qPCR splicing assay, Target C; conditions: Table 4, read-out: Target C IC50 (decrease in CJ mRNA levels)
In short: as §1

HTT mRNA = assay: Splicing assay (RT-qPCR) of HTT mRNA alternative junction (AJ) and canonical junction (CJ); conditions: A673 or K562 cells, 24 hours; for IC50: decrease in CJ mRNA, read-out: HTT CJ IC50; for AC50: increase in AJ mRNA, read-out: HTT AJ AC50
In short: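 HTT splice switching read as formation of an alternative-exon junction (AJ) versus the canonical junction (CJ) by one-step RT-qPCR on cell lysates, with GAPDH/GUSB housekeeping normalisation in K562 and PPIA in A673. Compounds: 11-point 3-fold series up to 10 uM, ≤0.25% DMSO, 24 h at 37 °C.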

SMN2 CJ mRNA = assay: Gene panel canonical junction qPCR splicing assay, SMN2; conditions: Table 4, read-out: SMN2 IC50 (decrease in CJ mRNA levels)
In short: as §1

| Structure (SMILES) | IC50 (HTT CJ mRNA) [nM] | IC50 (Target C CJ mRNA) [nM] | IC50 (HTT mRNA) [nM] | IC50 (SMN2 CJ mRNA) [nM] | AC50 (HTT mRNA) [nM] |
| --- | --- | --- | --- | --- | --- |
| CCC1CN(c2ccc3nc(-c4cc5cn(C)nc5cc4O)ccc3n2)CCN1 (centres unmarked) [Compound 119, 5-[6-(3-ethylpiperazin-1-yl)-1,5-naphthyridin-2-yl]-2-methylindazol-6-ol] | 100 to 1000 | 1000 to 10000 | 100 to 1000 | < 100 | 1000 to 10000 |
| c1c[nH]c(-c2ccc3nc(C4CCNCC4)ccc3n2)n1 [Compound 152, 2-(1H-imidazol-2-yl)-6-(piperidin-4-yl)-1,5-naphthyridine] | > 10000 | > 10000 | > 10000 | 1000 to 10000 | > 10000 |
| Cn1cc2cc(-c3ccc4nc(N5CC6(CNC6)C5)ccc4n3)c(O)cc2n1 [Compound 124, 5-(6-[2,6-diazaspiro[3.3]heptan-2-yl]-1,5-naphthyridin-2-yl)-2-methylindazol-6-ol] | < 100 | 100 to 1000 | < 100 | < 100 | 100 to 1000 |
| Cc1cn2cc(-c3ccc4nc(C5CCNCC5)ccc4n3)c(O)cc2n1 [Compound 149, 2-methyl-6-[6-(piperidin-4-yl)-1,5-naphthyridin-2-yl]imidazo[1,2-a]pyridin-7-ol] | > 10000 | > 10000 | > 10000 | 100 to 1000 | > 10000 |
| Cn1cc2cc(-c3ccc4nc(N5CCC(N6CCCC6)C5)ccc4n3)c(O)cc2n1 (centres unmarked) [Compound 125, 5-(6-[[1,3 m ? bipyrrolidin]-1 ? yl]-1,5-naphthyridin-2-yl)-2-methylindazol-6-ol] | 100 to 1000 | 100 to 1000 | 100 to 1000 | < 100 | 100 to 1000 |
| Cn1cc2cc(-c3ccc4nc(C5CCNCC5)ccc4n3)c(O)c(F)c2n1 [Compound 102, 7-fluoro-2-methyl-5-[6-(piperidin-4-yl)-1,5-naphthyridin-2-yl]indazol-6-ol] | < 100 | < 100 | < 100 | < 100 | < 100 |
| COc1cc2nc(C)oc2cc1-c1ccc2nc(N3CCC(NC(C)(C)C)C3)ccc2n1 (centres unmarked) [Compound 177, N-tert-butyl-1-[6-(5-methoxy-2-methyl-1,3-benzoxazol-6-yl)-1,5-naphthyridin-2-yl]pyrrolidin-3-amine] | 1000 to 10000 | 1000 to 10000 | 1000 to 10000 | 1000 to 10000 | 1000 to 10000 |
| Cn1cc2cc(-c3ccc4cc(C5CCNCC5)c(F)cc4n3)c(O)cc2n1 [Compound 144, 5-[7-fluoro-6-(piperidin-4-yl)quinolin-2-yl]-2-methylindazol-6-01] | > 10000 | > 10000 | > 10000 | > 10000 | > 10000 |
| Cn1cc2cc(-c3ccc4nc(N5C[C@H]6CC[C@@H](C5)N6)ccc4n3)c(O)cc2n1 [Compound 135, 5-[6 [(1R,5 S)-3,8-diazabicyclo[3.2.1]octan-3-yl]-1,5-naphthyridin-2-yl]-2-methylindazol-6-01] | 1000 to 10000 | 1000 to 10000 | 1000 to 10000 | < 100 | 1000 to 10000 |
| CN[C@H]1CCN(c2ccc3nc(-c4cc5cn(C)nc5cc4O)ccc3n2)C1 [Compound 170, 2-methyl-5-{6-[(3S)-3-(methylamino)pyrrolidin-1-yl]-1,5-naphthyridin-2-yl}indazol-6-ol] | < 100 | 100 to 1000 | < 100 | < 100 | 100 to 1000 |
| Cn1cc2cc(-c3ccc4nc(N5CC(NC(C)(C)C)C5)ccc4n3)c(O)cc2n1 [Compound 165] | 1000 to 10000 | 1000 to 10000 | 1000 to 10000 | 1000 to 10000 | 1000 to 10000 |
| COc1cc2nc(C)sc2cc1-c1ccc2nc(N3CCC(NC(C)(C)C)C3)ccc2n1 (centres unmarked) [Compound 176, N-tert-butyl-1-[6-(5-methoxy-2-methyl-1,3-benzothiazol-6-yl)-1,5-naphthyridin-2-yl]pyrrolidin-3-amine] | 1000 to 10000 | 1000 to 10000 | 1000 to 10000 | 1000 to 10000 | 1000 to 10000 |
| Cn1cc2cc(-c3ccc4nc(N5CCC56CCNC6)ccc4n3)c(O)cc2n1 (centres unmarked) [Compound 162] | > 10000 | > 10000 | > 10000 | 1000 to 10000 | > 10000 |

Further lines, with some results ahead:

| IC50 (HTT CJ mRNA) [nM] | IC50 (Target C CJ mRNA) [nM] | IC50 (HTT mRNA) [nM] | IC50 (SMN2 CJ mRNA) [nM] | Structure (SMILES) | AC50 (HTT mRNA) [nM] |
| --- | --- | --- | --- | --- | --- |
| 1000 to 10000 | 1000 to 10000 | 1000 to 10000 | 1000 to 10000 | Cc1cn2cc(-c3ccc4nc(N5CCC(NC(C)(C)C)C5)ccc4n3)nc(C)c2n1 (centres unmarked) [Compound 206] | 1000 to 10000 |
| 1000 to 10000 | 1000 to 10000 | 1000 to 10000 | 1000 to 10000 | Cn1cc2cc(-c3ccc4nc(C5CCNCC5)ccc4n3)c(F)cc2n1 [Compound 193, 2-(6-fluoro-2-methylindazol-5-yl)-6-(piperidin-4-yl)-1,5-naphthyridine] | 1000 to 10000 |
| < 100 | < 100 | < 100 | < 100 | Cc1nc2c(C)c(O)c(-c3ccc4nc(N5CCC(NC6CCC6)C5)ccc4n3)cc2o1 (centres unmarked) [Compound 235, 6-{6-[3-(cyclobutylamino)pyrrolidin-1-yl]-1,5-naphthyridin-2-yl}-2,4-dimethyl-1,3-benzoxazol-5-ol] | < 100 |
| < 100 | 100 to 1000 | < 100 | < 100 | Cn1cc2cc(-c3ccc4nc(N5CC[C@@H](NC6CC6)C5)ccc4n3)c(O)cc2n1 [Compound 198] | < 100 |
| 1000 to 10000 | 1000 to 10000 | 1000 to 10000 | < 100 | Cn1cc2cc(-c3ccc4nc(N5CC[C@H](NC6COC6)C5)ccc4n3)c(O)cc2n1 (stereo in doubt) [Compound 189] | 100 to 1000 |
| < 100 | < 100 | < 100 | < 100 | Cn1cc2cc(-c3ccc4nc(N5CC[C@H](NC6(C)CC6)C5)ccc4n3)c(O)cc2n1 (single isomer, unassigned) [Compound 221, 2-methyl-5-{6-[(35)-3-[(1-methylcyclopropyl)amino]pyrrolidin-1-yl]-1,5-naphthyridin-2-yl}indazol-6-ol] | < 100 |
| 100 to 1000 | 100 to 1000 | 100 to 1000 | 100 to 1000 | Cn1cc2nc(-c3ccc4nc(C5CCNCC5)ccc4n3)ccc2n1 [Compound 199, 2-{2-methylpyrazolo[4,3-b]pyridin-5-yl}-6-(piperidin-4-yl)-1,5-naphthyridine] | 100 to 1000 |
| < 100 | 100 to 1000 | < 100 | < 100 | Cn1cc2cc(-c3ccc4nc(N5CC[C@H](NC6CC6)C5)ccc4n3)c(O)cc2n1 [Compound 197, 5-{6-[(35)-3-(cyclopropylamino)pyrrolidin-1-yl]-1,5-naphthyridin-2-yl}-2-methylindazol-6-ol] | < 100 |
| < 100 | < 100 | < 100 | < 100 | Cc1nc2c(C)c(O)c(-c3ccc4nc(N5CCC(NC(C)(C)C)C5)ccc4n3)cc2o1 (single isomer, unassigned) [Compound 214, 6-{6-[3-(tert-butylamino)pyrrolidin-1-yl]-1,5-naphthyridin-2-yl}-2,4-dimethyl-1,3-benzoxazol-5-ol] | < 100 |
